Test results published in patent US8946203B2, “Benzodioxane inhibitors of leukotriene production” (Boehringer Ingelheim International GmbH, priority 2012, dated 2015).
Counter-ions that a name gives are not always drawn.

Legend:
[1] = target: T1, human LTA4 hydrolase (Homo sapiens, UniProt P09960); assay: LTA4H Enzyme assay (cleavage of Arg-AMC, fluorescence); type: biochemical; settings: LTA4H Enzyme 1 nM, Arg-AMC substrate 50 μM, room temperature 1 h, fluorescence; read-out: IC50 values of LTA4H Enzyme assay
T1 sequence (P09960 1-611): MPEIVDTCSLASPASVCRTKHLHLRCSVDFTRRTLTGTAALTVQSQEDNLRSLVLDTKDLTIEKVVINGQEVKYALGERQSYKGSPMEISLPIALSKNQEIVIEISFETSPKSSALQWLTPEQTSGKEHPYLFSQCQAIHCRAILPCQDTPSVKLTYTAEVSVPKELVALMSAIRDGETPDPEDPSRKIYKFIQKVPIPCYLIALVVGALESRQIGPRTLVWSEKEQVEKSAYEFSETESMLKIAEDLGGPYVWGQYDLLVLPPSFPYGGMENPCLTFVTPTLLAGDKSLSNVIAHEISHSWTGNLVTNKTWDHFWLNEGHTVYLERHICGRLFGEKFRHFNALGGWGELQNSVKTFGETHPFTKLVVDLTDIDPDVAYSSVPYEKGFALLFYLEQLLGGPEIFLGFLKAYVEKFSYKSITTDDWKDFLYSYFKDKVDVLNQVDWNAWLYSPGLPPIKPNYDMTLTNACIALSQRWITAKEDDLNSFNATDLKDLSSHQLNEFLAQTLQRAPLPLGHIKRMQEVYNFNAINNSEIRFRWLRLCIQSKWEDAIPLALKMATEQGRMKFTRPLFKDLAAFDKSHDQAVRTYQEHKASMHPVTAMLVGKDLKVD
Summary of the method: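 Aminomethylcoumarin release measured fluorimetrically (380/460 nm) after 1 h at room temperature. Reaction: 1 nM final enzyme, 50 μM final Arg-AMC and compound in Tris-HCl pH 7.5 with 100 mM KCl and 0.5% BSA.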

[2] = test system: synthesis of LTB4 in human whole blood; assay: human whole blood (HWB) assay, LTB4 production inhibition after calcimycin stimulation; type: cell-based; settings: heparinized human whole blood, calcimycin 20 μM, plasma LTB4 by HTRF
Summary of the method: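 Plasma LTB4, quantified by HTRF immunoassay, is the read-out after calcimycin challenge (20 μM final, 30 min, 37 °C) of heparinized whole blood that had been pretreated with compound for 15 min at 37 °C; values given as IC50.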

IC50 [1] | IC50 [2] | Compound
0.47 nM | 91 nM | CC(C)(O)C(=O)NC1CCN(Cc2ccc([C@H]3COc4ccccc4O3)cc2)CC1 [Example 220, N-(1-{4-[(2S)-2,3-dihydro-1,4-benzodioxin-2-yl]benzyl}piperidin-4-yl)-2-hydroxy-2-methylpropanamide]
1.4 nM | 307 nM | CC(c1ccc([C@H]2COc3ccccc3O2)cc1)N1CCC(C(=O)O)CC1 (stereo partly drawn) [Example 227, 1-{1-[(S)-4-(2,3-dihydro-benzo[1,4]dioxin-2-yl)-phenyl]-ethyl}-piperidine-4-carboxylic acid]
3.85 nM | 290 nM | CC(C)(C(=O)O)C1CCN(Cc2ccc([C@H]3COc4ccccc4O3)cc2)CC1 [Example 229, 2-{1-[(S)-4-(2,3-Dihydro-benzo[1,4]dioxin-2-yl)-benzyl]-piperidin-4-yl}-2-methyl-propionic acid formate salt]
0.14 nM | 95 nM | O=C(O)c1ccc(CC2CCN(Cc3ccc([C@H]4COc5cccnc5O4)cc3)CC2)cc1 [Example 234, 4-[(1-{4-[(3S)-2,3-dihydro[1,4]dioxino[2,3-b]pyridin-3-yl]benzyl}piperidin-4-yl)methyl]benzoic acid]
0.81 nM | 95 nM | CCCCN(Cc1ccc(C(=O)O)cc1)Cc1ccc([C@H]2COc3ccccc3O2)cc1 [Example 237, 4-[(butyl{4-[(2S)-2,3-dihydro-1,4-benzodioxin-2-yl]benzyl}amino)methyl]benzoic acid]
0.56 nM | 140 nM | CCOC(=O)c1nnc2n1CCN(Cc1ccc([C@H]3COc4cccnc4O3)cc1)C2 [Example 240, 7-[(S)-4-(2,3-dihydro-[1,4]dioxino[2,3-b]pyridin-3-yl)-benzyl]-5,6,7,8-tetrahydro-[1,2,4]triazolo[4,3-a]pyrazine-3-carboxylic acid ethyl ester]
0.5 nM | 110 nM | NC(=O)c1nnc2n1CCN(Cc1ccc([C@H]3COc4cccnc4O3)cc1)C2 [Example 241, 7-[(S)-4-(2,3-Dihydro-[1,4]dioxino[2,3-b]pyridin-3-yl)-benzyl]-5,6,7,8-tetrahydro-[1,2,4]triazolo[4,3-a]pyrazine-3-carboxylic acid amide]
0.6 nM | 170 nM | CNC(=O)c1nnc2n1CCN(Cc1ccc([C@H]3COc4cccnc4O3)cc1)C2 [Example 242, 7-[(S)-4-(2,3-dihydro-[1,4]dioxino[2,3-b]pyridin-3-yl)-benzyl]-5,6,7,8-tetrahydro-[1,2,4]triazolo[4,3-a]pyrazine-3-carboxylic acid methylamide]
0.56 nM | 84 nM | CC(=O)N[C@H]1[C@@H]2CN(Cc3ccc([C@H]4COc5cccnc5O4)cc3)C[C@@H]21 [Example 250, N-{(1α,5α,6α)-3-[(S)-4-(2,3-Dihydro-[1,4]dioxino[2,3-b]pyridin-3-yl)-benzyl]-3-aza-bicyclo[3.1.0]hex-6-yl}-acetamide]
0.7 nM | 110 nM | O=C(CO)N1CCN(Cc2ccc([C@H]3COc4cccnc4O3)cc2)CC1 [Example 253, 1-{4-[(S)-4-(2,3-Dihydro-[1,4]dioxino[2,3-b]pyridin-3-yl)-benzyl]-piperazin-1-yl}-2-hydroxy-ethanone]
0.24 nM | 84 nM | O=C(O)c1ccc(C2CN(Cc3ccc([C@H]4COc5ccccc5O4)cc3)C2)cc1 [Example 254, 4-{1-[(S)-4-(2,3-Dihydro-benzo[1,4]dioxin-2-yl)-benzyl]-azetidin-3-yl}-benzoic acid]

Continued, compound first:

Compound | IC50 [1] | IC50 [2]
O=C(O)[C@@H]1CCN(Cc2ccc([C@H]3COc4ccccc4O3)cc2)C1 [Example 214, (3R)-1-{4-[(2S)-2,3-dihydro-1,4-benzodioxin-2-yl]benzyl}pyrrolidine-3-carboxylic acid] | 0.47 nM | 169 nM
COCC(=O)NC1CCN(Cc2ccc([C@H]3COc4ccccc4O3)cc2)CC1 [Example 219, N-(1-{4-[(2S)-2,3-dihydro-1,4-benzodioxin-2-yl]benzyl}piperidin-4-yl)-2-methoxyacetamide] | 0.49 nM | 149 nM
NC(=O)c1cn2c(n1)CN(Cc1ccc([C@H]3COc4cccnc4O3)cc1)CC2 [Example 243, 7-[(S)-4-(2,3-dihydro-[1,4]dioxino[2,3-b]pyridin-3-yl)-benzyl]-5,6,7,8-tetrahydro-imidazo[1,2-a]pyrazine-2-carboxylic acid amide] | 0.42 nM | 99 nM
CNC(=O)c1cn2c(n1)CN(Cc1ccc([C@H]3COc4cccnc4O3)cc1)CC2 [Example 244, 7-[(S)-4-(2,3-dihydro-[1,4]dioxino[2,3-b]pyridin-3-yl)-benzyl]-5,6,7,8-tetrahydro-imidazo[1,2-a]pyrazine-2-carboxylic acid methylamide] | 0.26 nM | 120 nM
NC(=O)c1nnc2n1CCN(Cc1ccc([C@H]3COc4cccnc4O3)cc1)CC2 [Example 245, 6-[(S)-4-(2,3-dihydro-[1,4]dioxino[2,3-b]pyridin-3-yl)-benzyl]-5,6,7,8-tetrahydro-4H-1,2,3a,6-tetraaza-azulene-3-carboxylic acid amide] | 0.32 nM | 130 nM
CNC(=O)c1nnc2n1CCN(Cc1ccc([C@H]3COc4cccnc4O3)cc1)CC2 [Example 246, 6-[(S)-4-(2,3-Dihydro-[1,4]dioxino[2,3-b]pyridin-3-yl)-benzyl]-5,6,7,8-tetrahydro-4H-1,2,3a,6-tetraaza-azulene-3-carboxylic acid methylamide] | 0.29 nM | 91 nM
C[C@H](O)CNC(=O)[C@H]1[C@@H]2CN(Cc3ccc([C@H]4COc5cccnc5O4)cc3)C[C@@H]21 [Example 247, [(1α,5α,6α)-3-[(S)-4-(2,3-dihydro-[1,4]dioxino[2,3-b]pyridin-3-yl)-benzyl]-3-aza-bicyclo[3.1.0]hexane]-6-carboxylic acid ((S)-2-hydroxy-propyl)-amide] | 0.17 nM | 68 nM
C[C@@H](CO)NC(=O)[C@H]1[C@@H]2CN(Cc3ccc([C@H]4COc5cccnc5O4)cc3)C[C@@H]21 [Example 248, [(1α,5α,6α)-3-[(S)-4-(2,3-Dihydro-[1,4]dioxino[2,3-b]pyridin-3-yl)-benzyl]-3-aza-bicyclo[3.1.0]hexane]-6-carboxylic acid ((S)-2-hydroxy-1-methyl-ethyl)-amide] | 0.17 nM | 58 nM
N#Cc1cnc2n1CCN(Cc1ccc([C@H]3COc4cccnc4O3)cc1)C2 [Example 249, 7-[(S)-4-(2,3-Dihydro-[1,4]dioxino[2,3-b]pyridin-3-yl)-benzyl]-5,6,7,8-tetrahydro-imidazo[1,2-a]pyrazine-3-carbonitrile] | 0.25 nM | 58 nM
CC(C)(O)CNC(=O)[C@H]1[C@@H]2CN(Cc3ccc([C@H]4COc5cccnc5O4)cc3)C[C@@H]21 [Example 251, [(1α,5α,6α)-3-[(S)-4-(2,3-Dihydro-[1,4]dioxino[2,3-b]pyridin-3-yl)-benzyl]-3-aza-bicyclo[3.1.0]hexane-6-carboxylic acid (2-hydroxy-2-methyl-propyl)]-amide] | 0.16 nM | 63 nM
COCC(=O)NC1CCN(Cc2ccc([C@H]3COc4cccnc4O3)cc2)CC1 [Example 252, N-{1-[(S)-4-(2,3-Dihydro-[1,4]dioxino[2,3-b]pyridin-3-yl)-benzyl]-piperidin-4-yl}-2-methoxy-acetamide] | 0.15 nM | 42 nM
